Values after ≈ are worked out from the molar mass of the structure shown. Active and inactive are the calls of the source. The rule behind the calls is not given here.
What was measured:
Staphylococcus aureus [1] = test: Anti-bacterial activity against Staphylococcus aureus CMCC (B) 26003 assessed as inhibition of bacterial growth; assay type: functional
Escherichia coli [2] = test: Anti-bacterial activity against Escherichia coli ATCC 25922 assessed as fractional inhibitory concentration measured upto 9 hrs in presence of ethyl(E)-6-((4-(2-(2-aminothiazol-4-yl)-2-(methoxyimino)acetyl)piperazin-1-yl)methyl)-4-(2-butyl-4-chloro-1H-imidazole-5-yl)-2-oxo-1,2,3,4-tetrahydropyrimidine-5-carboxylate; assay type: functional
Escherichia coli [3] = test: Anti-bacterial activity against Escherichia coli JM109 assessed as inhibition of bacterial growth; assay type: functional
Escherichia coli [4] = test: Drug resistance, ratio of MIC for Escherichia coli ATCC 25922 after 20 passages exposure to MIC for Escherichia coli ATCC 25922 after first exposure; assay type: functional
Acinetobacter baumannii [5] = test: Anti-bacterial activity against Acinetobacter baumannii assessed as growth inhibition by measuring optical density measured at 1 time of MIC (reference value: 0.156); assay type: functional
Pseudomonas aeruginosa [6] = test: Anti-bacterial activity against Pseudomonas aeruginosa CMCC (B) 10104 assessed as inhibition of bacterial growth; assay type: functional; settings: Pseudomonas aeruginosa, CMCC (B) 10104; read-out: MIC
Escherichia coli [7] = test: Anti-bacterial activity against Escherichia coli ATCC 25922 assessed as growth inhibition by measuring optical density measured at 2 times of MIC of norfloxacin by Checkerboard assay (reference value: 0.129); assay type: functional
Acinetobacter baumannii [8] = test: Anti-bacterial activity against Acinetobacter baumannii assessed as growth inhibition by measuring optical density measured at 1/8 time of MIC (reference value: 0.156); assay type: functional
Escherichia coli [9] = test: Anti-bacterial activity against Escherichia coli ATCC 25922 assessed as inhibition of bacterial growth measured after 6-7 th passages at sub-MIC concentration by multiple resistance study; assay type: functional, organism-based
Staphylococcus aureus [10] = test: Anti-bacterial activity against Staphylococcus aureus ATCC 1708 assessed as inhibition of bacterial growth; assay type: functional; settings: Staphylococcus aureus, ATCC 1708; read-out: MIC
Acinetobacter baumannii [11] = test: Anti-bacterial activity against Acinetobacter baumannii assessed as growth inhibition by measuring optical density measured at 1/2 time of MIC (reference value: 0.156); assay type: functional
Acinetobacter baumannii [12] = test: Drug resistance, ratio of MIC for Acinetobacter baumannii after 20 passages exposure to MIC for Acinetobacter baumannii after first exposure; assay type: functional
Escherichia coli [13] = test: Anti-bacterial activity against Escherichia coli ATCC 25922 assessed as inhibition of bacterial growth; assay type: functional
Staphylococcus aureus [14] = test: Anti-bacterial activity against methicillin-resistant Staphylococcus aureus N315 assessed as inhibition of bacterial growth; assay type: functional; settings: Staphylococcus aureus, N315; read-out: MIC
Escherichia coli [15] = test: Anti-bacterial activity against Escherichia coli ATCC 25922 assessed as growth inhibition by measuring optical density measured at 1 times of MIC of norfloxacin by Checkerboard assay (reference value: 0.129); assay type: functional
Pseudomonas aeruginosa [16] = test: Anti-bacterial activity against Pseudomonas aeruginosa ATCC 27853 assessed as inhibition of bacterial growth; assay type: functional; settings: Pseudomonas aeruginosa, ATCC 27853; read-out: MIC
Enterococcus faecalis = test: Anti-bacterial activity against Enterococcus faecalis V583 assessed as inhibition of bacterial growth; assay type: functional
Pseudomonas aeruginosa [17] = test: Anti-bacterial activity against Pseudomonas aeruginosa ATCC 15442 assessed as inhibition of bacterial growth; assay type: functional; settings: Pseudomonas aeruginosa, ATCC 15442; read-out: MIC
Staphylococcus aureus [18] = test: Anti-bacterial activity against Staphylococcus aureus ATCC 12600 assessed as inhibition of bacterial growth; assay type: functional; settings: Staphylococcus aureus, ATCC 12600; read-out: MIC
Klebsiella pneumoniae = test: Anti-bacterial activity against Klebsiella pneumoniae KPN325 assessed as inhibition of bacterial growth; assay type: functional; settings: Klebsiella pneumoniae, KPN325; read-out: MIC
Pseudomonas aeruginosa [19] = test: Anti-bacterial activity against Pseudomonas aeruginosa ATCC 9027 assessed as inhibition of bacterial growth; assay type: functional
Staphylococcus aureus [20] = test: Anti-bacterial activity against methicillin-resistant Staphylococcus aureus ATCC 43300 assessed as inhibition of bacterial growth; assay type: functional; settings: Staphylococcus aureus, ATCC 43300; read-out: MIC
Pseudomonas aeruginosa [21] = test: Anti-bacterial activity against Pseudomonas aeruginosa ST235 assessed as inhibition of bacterial growth; assay type: functional; settings: Pseudomonas aeruginosa, ST235; read-out: MIC
Acinetobacter baumannii [22] = test: Anti-bacterial activity against Acinetobacter baumannii assessed as fractional inhibitory concentration measured upto 9 hrs in presence of ethyl(E)-6-((4-(2-(2-aminothiazol-4-yl)-2-(methoxyimino)acetyl)piperazin-1-yl)methyl)-4-(2-butyl-4-chloro-1H-imidazole-5-yl)-2-oxo-1,2,3,4-tetrahydropyrimidine-5-carboxylate; assay type: functional
Acinetobacter baumannii [23] = test: Anti-bacterial activity against Acinetobacter baumannii R674 assessed as inhibition of bacterial growth; assay type: functional
Escherichia coli [24] = test: Anti-bacterial activity against Escherichia coli ATCC 25922 assessed as growth inhibition by measuring optical density measured at 1/2 times of MIC of norfloxacin by Checkerboard assay (reference value: 0.129); assay type: functional
Staphylococcus aureus [25] = test: Anti-bacterial activity against Staphylococcus aureus ATCC 25923 assessed as inhibition of bacterial growth; assay type: functional; settings: Staphylococcus aureus, ATCC 25923; read-out: MIC
Staphylococcus aureus [26] = test: Anti-bacterial activity against Staphylococcus aureus ATCC 6538 assessed as inhibition of bacterial growth; assay type: functional
Escherichia coli [27] = test: Anti-bacterial activity against Escherichia coli ATCC 25922 assessed as growth inhibition by measuring optical density measured at 1/8 times of MIC of norfloxacin by Checkerboard assay (reference value: 0.129); assay type: functional
Acinetobacter baumannii [28] = test: Anti-bacterial activity against Acinetobacter baumannii assessed as growth inhibition by measuring optical density measured at 2 time of MIC (reference value: 0.156); assay type: functional
Staphylococcus aureus [29] = test: Anti-bacterial activity against Staphylococcus aureus ATCC 29213 assessed as inhibition of bacterial growth; assay type: functional; settings: Staphylococcus aureus, ATCC 29213; read-out: MIC
Escherichia coli [30] = test: Anti-bacterial activity against Escherichia coli ATCC 25922 assessed as growth inhibition by measuring optical density measured at 1/4 times of MIC of norfloxacin by Checkerboard assay (reference value: 0.129); assay type: functional
Acinetobacter baumannii [31] = test: Anti-bacterial activity against Acinetobacter baumannii assessed as growth inhibition by measuring optical density measured at 1/4 time of MIC (reference value: 0.156); assay type: functional
Acinetobacter baumannii [32] = test: Anti-bacterial activity against Acinetobacter baumannii assessed as inhibition of bacterial growth measured after 6-7 th passages at sub-MIC concentration by multiple resistance study; assay type: functional, organism-based
Staphylococcus aureus [33] = test: Anti-bacterial activity against Staphylococcus aureus CMCC (B) 26001 assessed as inhibition of bacterial growth; assay type: functional
Candida albicans [34] = test: Anti-fungal activity against Candida albicans 90023 assessed as inhibition of fungal growth; assay type: functional
Candida tropicalis = test: Anti-fungal activity against Candida tropicalis assessed as inhibition of fungal growth; assay type: functional; settings: Candida tropicalis; read-out: MIC
Candida parapsilosis = test: Anti-fungal activity against Candida parapsilosis assessed as inhibition of fungal growth; assay type: functional; settings: Lodderomyces parapsilosis; read-out: MIC
Candida albicans [35] = test: Anti-fungal activity against Candida albicans assessed as inhibition of fungal growth; assay type: functional; settings: Candida albicans; read-out: MIC

Row | SMILES | MIC (Staphylococcus aureus [1]) [µM] | MIC (Escherichia coli [3]) [µM] | MIC (Pseudomonas aeruginosa [6]) [µM] | MIC (Staphylococcus aureus [10]) [µM] | MIC (Escherichia coli [13]) [µM] | MIC (Staphylococcus aureus [14]) [µM] | MIC (Pseudomonas aeruginosa [16]) [µM] | MIC (Enterococcus faecalis) [µM] | MIC (Pseudomonas aeruginosa [17]) [µM] | MIC (Staphylococcus aureus [18]) [µM] | MIC (Klebsiella pneumoniae) [µM] | MIC (Pseudomonas aeruginosa [19]) [µM] | MIC (Staphylococcus aureus [20]) [µM] | MIC (Pseudomonas aeruginosa [21]) [µM] | MIC (Acinetobacter baumannii [23]) [µM] | MIC (Staphylococcus aureus [25]) [µM] | MIC (Staphylococcus aureus [26]) [µM] | MIC (Staphylococcus aureus [29]) [µM] | MIC (Staphylococcus aureus [33]) [µM] | other results
1 | CCn1cc(C(=O)O)c(=O)c2cc(F)c(N3CCNCC3)cc21 [NORFLOXACIN] | 6 (≈ 1.92 µg/mL) | 25 (≈ 7.98 µg/mL) | 6 (≈ 1.92 µg/mL) | 3 (≈ 0.958 µg/mL) | 13 (≈ 4.15 µg/mL) | 6 (≈ 1.92 µg/mL) | 25 (≈ 7.98 µg/mL) | 6 (≈ 1.92 µg/mL) | 6 (≈ 1.92 µg/mL) | 6 (≈ 1.92 µg/mL) | 3 (≈ 0.958 µg/mL) | 6 (≈ 1.92 µg/mL) | 3 (≈ 0.958 µg/mL) | 6 (≈ 1.92 µg/mL) | 13 (≈ 4.15 µg/mL) | 6 (≈ 1.92 µg/mL) | 6 (≈ 1.92 µg/mL) | 6 (≈ 1.92 µg/mL) | 6 (≈ 1.92 µg/mL) | FIC (Escherichia coli [2]): 0.25; Ratio (Escherichia coli [4]): 16; OD (Acinetobacter baumannii [5]): 0.138; OD (Escherichia coli [7]): 0.128; OD (Acinetobacter baumannii [8]): 0.155; Activity (Escherichia coli [9]): inactive; OD (Acinetobacter baumannii [11]): 0.141; Ratio (Acinetobacter baumannii [12]): 32; OD (Escherichia coli [15]): 0.129; FIC (Acinetobacter baumannii [22]): 0.25; OD (Escherichia coli [24]): 0.128; OD (Escherichia coli [27]): 0.125; OD (Acinetobacter baumannii [28]): 0.136; OD (Escherichia coli [30]): 0.128; OD (Acinetobacter baumannii [31]): 0.142; Activity (Acinetobacter baumannii [32]): inactive
2 | CCOC(=O)C1=C(CN2CCN(C(=O)/C(=N/OC)c3csc(N)n3)CC2)NC(=O)NC1c1nccs1 (stereo not drawn) | 240 (≈ 128 µg/mL) | 240 (≈ 128 µg/mL) | 240 (≈ 128 µg/mL) | 240 (≈ 128 µg/mL) | 60 (≈ 32.1 µg/mL) | 240 (≈ 128 µg/mL) | 15 (≈ 8.02 µg/mL) | 240 (≈ 128 µg/mL) | 120 (≈ 64.2 µg/mL) | 120 (≈ 64.2 µg/mL) | 240 (≈ 128 µg/mL) | 60 (≈ 32.1 µg/mL) | 120 (≈ 64.2 µg/mL) | 30 (≈ 16 µg/mL) | 479 (≈ 256 µg/mL) | 240 (≈ 128 µg/mL) | 120 (≈ 64.2 µg/mL) | 479 (≈ 256 µg/mL) | 60 (≈ 32.1 µg/mL) | MIC (Candida albicans [34]): 60 µM (≈ 32.1 µg/mL); MIC (Candida tropicalis): 60 µM (≈ 32.1 µg/mL); MIC (Candida parapsilosis): 479 µM (≈ 256 µg/mL); MIC (Candida albicans [35]): 479 µM (≈ 256 µg/mL)
